Experimental data published in US20150038739A1, “METHOD FOR MANUFACTURING REFINED METHIONINE” (SUMITOMO CHEMICAL COMPANY, LIMITED, priority 2012, published 2015).

With `CSCC[C@H](N)C(=O)O` [methionine] the “solubility of methionine in pure water (saturated solubility)” value (pure water, normal temperature and normal pressure) was “about 3.0 % by weight” and the “saturated solubility of methionine in alkaline recovered wash water” value (under 2.0% by weight of concentration of potassium) was “about 5.0 % by weight”.
